Experiments:
[1] = test system: tactile allodynia in a spinal nerve ligation neuropathic pain model; assay: Lumbar 5/6 spinal nerve ligation neuropathic pain model, mechanical paw withdrawal threshold (von Frey); format: in vivo, rat
Description: Neuropathic pain was induced following the methods of Kim and Chung. Kim S H, Chung J M. An experimental model for peripheral neuropathy produced by segmental spinal nerve ligation in the rat. Pain 1992; 50:355-63. Rats were anesthetized and placed prone under a microsurgical apparatus. A midline incision was made on the back, and the right paraspinal muscles were separated from the spinous processes at the L4-S2 levels. The L6 transverse process was carefully removed, and the L4/5 spinal nerves were identified. The L5 nerve was tightly ligated with a 6-0 silk suture. The right L6 spinal nerve was then located just caudal and medial to the sacroiliac junction and tightly ligated with a silk suture.
Two weeks later after spinal nerve ligation, Intrathecal catheters (PE-10 tubing) was inserted into the rats while they were anesthetized with isoflurane, as described by Yaksh and Rudy. Yaksh T L, Rudy T A. Chronic catheterization of the spinal subarachnoid space. Physiology & Behavior 1976; 17:1031-6. A midline incision was made on the back of the neck. The muscle was freed at the attachment to the skull exposing the cisternal membrane. The membrane was opened with a stab blade and an 8.5 cm polyethylene (PE-10) catheter was then inserted through the cisternal opening, and passed carefully and caudally into the intrathecal space at the L1-L3 spinal segments. The end of the catheter was tunneled through the subcutaneous space over the frontal bones, flushed with 10 μl saline, and then plugged with a short length of wire Animal testing was performed 5-7 days after intrathecal catheter placement.
To assess mechanical allodynia, the mechanical paw withdrawal threshold was measured with a series of von Frey hairs (range 0.4-15 g). Rats were placed in elevated Perspex enclosures (28 cm×15 cm×18 cm) with wire mesh bases and given 15-20 min to acclimatize to the testing environment. Rats will be allowed to acclimatize for 30 min in a clear plastic cage with a wire mesh bottom. The calibrated von Frey filament fibers were applied to the hindpaw briefly for 6 seconds to determine the paw withdrawal threshold before and after drug injection (intraperitoneally or intrathecally). A series of von Frey filaments with exponentially incremental stiffness (0.4, 0.7, 1.2, 2.0, 3.6, 5.5, 8.5 and 15 g) were used to measure the 50% threshold for hindpaw withdrawal in awake, unrestrained rats. Chaplan S R, Bach F W, Pogrel J W, Chung J M, Yaksh T L. Quantitative assessment of tactile allodynia in the rat paw. Journal of Neuroscience Methods 1994; 53:55-63. Brisk paw withdrawal from the pressure of a filament gently bent against the plantar paw was defined as a positive response, and absence of withdrawal within 6 s as a negative response. Filaments were touched to the hindpaw in sequential ascending or descending order until the threshold of response is crossed (allowing about 10 s between each increment of the von Frey filaments). Each time the threshold is crossed, the direction of stimulus presentation was reversed and the procedure will be resumed. Four responses were collected after the first threshold detection, and the 50% withdrawal thresholds were interpolated. In cases where response thresholds fell outside the range of detection, 15.00 and 0.25 g were, respectively, assigned for continuous negative or positive responses to the limit of stimuli.
All surgical procedures were performed under deep isoflurane anesthesia in 100% O2. The spinal nerve ligation (SNL) was performed as described previously. Kim, S. H., et al., An Experimental Model for Peripheral Neuropathy Produced by Segmental Spinal Nerve Ligation in the Rat, Pain, 1992, 50:355-63. Briefly, a midline incision above the lumbar spine exposed the left L6 transverse process. The process was then removed, the left L5 and L6 spinal nerves were isolated, and both nerves were tightly ligated with 6-0 silk. […]

[2] = test system: Paclitaxel-induced neuropathy; assay: Prevention of paclitaxel-induced neuropathy; format: in vivo, rat; details: 15 mg/kg intraperitoneally 30 minutes prior to paclitaxel; rats
Procedure: A mixture of saline and CREMOPHOR®ELP 10% was used as vehicle for paclitaxel. It was injected at a concentration of 1.0 mg/kg intraperitoneally to the chemotherapy-treated group of rats on 4 consecutive days for a final cumulative dose of 4 mg/kg to 18 rats.
Assessment of neuropathic pain. Paw withdrawal thresholds were determined daily in both hind paws of each animal using calibrated von Frey monofilaments according to an up-down procedure. A series of von Frey filaments with exponentially incremental degrees of stiffness (0.4, 0.7, 1.2, 2.0, 3.6, 5.5, 8.5, and 15.1 g) was used to measure the 50% threshold for both hindpaw withdrawal in awake, unrestrained rats. Chaplan, S. R., Quantitative assessment of tactile allodynia in the rat paw, Journal of Neuroscience Methods, 1994, 53:55-63. […]
Group 1 of rats received paclitaxel for four days, as described immediately above in subpart (A) titled “Paclitaxel-induced Neuropathy.” In group 2, a dose of 15 mg/kg of the compound of Example 6, injected intraperitoneally was administered 30 minutes prior to the administration of paclitaxel. […] Paw withdrawal thresholds were determined daily in both hind paws of each animal using calibrated von Frey monofilaments according to an up-down procedure as described immediately above in subpart (A) titled “Paclitaxel-induced Neuropathy.” The results are shown in FIG. 14.

CCCCCCN1C(=O)/C(=N\NC(=O)c2ccccc2)c2ccccc21 [Example 6, Benzoic acid [1-n-hexyl-2-oxo-1,2-dihydro-indol-3-ylidene]-hydrazide]
duration of peak threshold ([1]; IP 30 mg/kg, rats): one | peak paw withdrawal threshold ([1]; IP 30 mg/kg, rats): 15 g | time of peak effect following administration ([1]; IP 30 mg/kg, rats): ≤ 5 min | effect on mechanical paw withdrawal threshold ([1]; IP administration of 30 mg/kg in 0.5 ml, rats): produced an increase in mechanical paw withdrawal threshold | ED50 ([1]; Rattus norvegicus, ip, rats, spinal nerve ligation, 95% CI, read-out: ED50 of the anti-allodynic effect): 5.9 mg/kg | ED90 of the anti-allodynic effect ([1]; i.p., rats, spinal nerve ligation, 95% CI): 12 (95% CI 9.6-15.5) mg/kg | effect on paw withdrawal threshold ([1]; intrathecal (IT) administration, at 5 min, rats): short-lived modest increase in paw withdrawal threshold | behavioral abnormalities or side effects ([1]; rats of the nerve-ligation study): No behavioral abnormalities or side effects were noted | development of paclitaxel-induced peripheral neuropathy (paw withdrawal threshold) [2]: prevented the development of neuropathic pain induced by paclitaxel
